GI50 and TGI data for 32 molecules are collected here from PubChem BioAssay (NCI).

Molecules are shown by their SMILES. Where “and” joins values, the source holds several entries; their conditions need not be identical. Identical values can stand only once.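 Tested at 5 concentrations; 48 h exposure; 96-well plates; endpoints linearly interpolated, else capped at highest concentration. The concentration for 50% growth inhibition is given as GI50. TGI: concentration producing complete growth inhibition.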

The test concerns MDA-MB-468 breast. Put plainly: inhibition of tumour cell growth, NCI panel, 48 h.
For `CCCC(C)c1ccc(OCCCCCCN2CCNCC2)cc1` (centres undefined), the GI50 was 1.71 µM and the TGI came out at 3.49 µM.
Consider `O=C(Oc1ccc[nH]c1=O)c1cc([N+](=O)[O-])cc([N+](=O)[O-])c1`, for which the GI50 is more than 100 µM and the TGI was more than 100 µM.
For the molecule `Nc1ncc(-c2cnn(C3CCNCC3)c2)cc1-c1nc2cc(Cl)ccc2o1`, the GI50 is 1.65 µM and the TGI came to 3.29 µM.
For `C=C(C)[C@@H]1CC[C@]2(COCCCN)CC[C@]3(C)[C@H](CC[C@@H]4[C@@](C)(CCCNCCCN)[C@H](C(=C)C)CC[C@]43C)[C@@H]12`, in that order: 1.87 µM and 3.75 µM.
Regarding `COc1cc(Nc2ncccc2C(=O)Nc2nc3ccc(F)cc3s2)cc(OC)c1OC`, the GI50 is 1.22 µM and the TGI was 8.85 µM.
Taken in the same sequence, the figures for `O=C1NC(=S)S/C1=C/c1ccc2c(c1)OCO2` were more than 100 µM and more than 100 µM.
Regarding `COc1ccc2c(c1)NC1=C(C(=O)OC1)C2c1cc(OC)c(OC)c(OC)c1` (centres undefined), the GI50 was less than 0.01 µM and the TGI is less than 0.01 µM.
Regarding `Nc1n[nH]c2cccc(C#Cc3cccc(NC(=O)c4cccc(C(F)(F)F)c4)c3)c12`, the GI50 is 9.71 µM and the TGI was 28.2 µM.
Consider `CCOc1cc(C(C)(C)C)ccc1C1=N[C@H](c2ccc(Cl)cc2)[C@H](c2ccc(Cl)cc2)N1C(=O)N1CCN(CC#Cc2cccc3c2CN([C@@H]2CCC(=O)NC2=O)C3=O)CC1`, for which the GI50 is 0.0321 µM and the TGI is more than 100 µM.
In the case of `O=C1C=CC(=O)C2C1C1(Cl)C(Cl)=C(Cl)C2(Cl)C1(Cl)Cl` (centres undefined), the GI50 is 3.29 µM and the TGI was found to be 11.3 µM.
On to `O=C(NC(=O)c1c(F)cccc1F)Nc1cccc(Oc2ncc(Cl)cn2)c1`, for which the GI50 was 7.78 µM and the TGI was more than 100 µM.
Regarding `CCOc1cccc(/C=N/NC(=O)c2cccc(Nc3ccnc(C(F)(F)F)c3)c2)c1O`, the GI50 was 0.327 µM and the TGI was more than 100 µM.
In the case of `C=C1c2c(C)nn(-c3ccc(C#CCOC4OC(CO)C(O)C(O)C4O)cc3)c2N(C)C23C[C@H]1C1(C)c4c(C)nn(-c5ccc(C#CCOC6OC(CO)C(O)C(O)C6O)cc5)c4N(C)C(C)(C[C@H]12)C3` (some centres undefined), the GI50 is 1.34 µM and the TGI was found to be 2.73 µM.
As to `CCCCCCCCn1ccc2cc(NC(=O)Cn3cc(CN4CCCCCC4)nn3)ccc21`, the GI50 was 1.65 µM and the TGI turned out to be 3.33 µM.
Consider `CCN1C(=O)c2ccc3c4c(ccc(c24)C1=O)C(=O)N(CCCNCc1ccccc1OC)C3=O`, for which the GI50 was 0.326 µM and the TGI was determined as 1.3 µM.
Consider `COC(=O)c1ccc2[nH]c(O)c(C(=Nc3ccc(N(C)C(=O)CN4CCN(C)CC4)cc3)c3ccc4c(c3)OCO4)c2c1`, for which the GI50 was 0.84 µM and the TGI was 2.38 µM.
For `Cc1cn(-c2cc(NC(=O)c3cccc(C#Cc4cccc5[nH]nc(N)c45)c3)cc(C(F)(F)F)c2)cn1`, in that order: 17.1 µM and more than 100 µM.
With `CC1(C)N=C(N)N=C(N)N1c1ccc(CCC(=O)Nc2ccc(S(=O)(=O)F)cc2)c(Cl)c1`, the GI50 is 0.864 µM and the TGI was more than 100 µM.
As for `C=CC(=O)N1CCC(Oc2cc3c(Nc4ccc(Cl)c(Cl)c4F)ncnc3cc2OC)CC1`, the GI50 was less than 0.001 µM; the TGI is < 0.01 µM and 0.0199 µM.
For the molecule `O=C(/C=C/c1ccccc1)Nc1ncc(Cc2ccccc2Cl)s1`, the GI50 was 0.37 µM and the TGI was more than 71.5 µM.
Consider `CN(c1ccc(NC(=O)Nc2c(Cl)cccc2Cl)cc1)c1ccnc(Nc2cccc(CS(C)(=O)=O)c2)n1`, for which the GI50 was 1.11 µM and the TGI worked out at 6.44 µM.
For the molecule `CN(C)C/C=C/C(=O)Nc1ccc(C(=O)N[C@@]2(C)CCC[C@@H](Nc3ncc(Cl)c(-c4c[nH]c5ccccc45)n3)C2)nc1`, the GI50 is 0.0108 µM and the TGI came to 0.0352 µM.
With `CCCOC(=O)N[C@H]1CCc2c(Cl)c(OC)c(OC)c(OC)c2-c2ccc(SC)c(=O)cc21`, the GI50 is less than 0.01 µM and the TGI came to 16.3 µM.
Regarding `O=c1[nH]c2ccccc2cc1-c1nc2ccc(Cl)cc2[nH]1`, the GI50 is 3.26 µM and the TGI was more than 100 µM.
As to `CC/C=C\C[C@H]1CC=C2C(=O)C=C[C@@H]2CC=CCCCC(=O)O[C@@H](CCCCC)CC=C2C(=O)C=C[C@@H]2CC=CCCCC(=O)O[C@@H](CCCCC)CC=C2C(=O)C=C[C@@H]2CC=CCCCC(=O)O[C@@H](CCCCC)CC=C2C(=O)C=C[C@@H]2CC=CCCCC(=O)O1`, the GI50 is 1.7 µM and the TGI was 4.22 µM.
Take `CS(=O)(=O)CCNCc1coc(-c2ccc3ncnc(Nc4ccc(OCc5ccccc5)cc4)c3c2)c1`: the GI50 is 0.543 µM and the TGI was found to be 3.8 µM.
`COc1cccc2c1C(=N)c1c(O)c3c(c(O)c1C2=O)C[C@@](O)(C(C)=O)C[C@@H]3O[C@H]1C[C@H](N)[C@H](O)[C@H](C)O1`: the GI50 was 0.278 µM and the TGI was 1.28 µM.
With `NC(CSC(c1ccccc1)(c1ccccc1)c1ccccc1)C(=O)NCC(=O)O` (centres undefined), the GI50 is 2.88 µM and the TGI came out at 17.7 µM.
Take `COc1cc(C2c3cc4c(cc3OC(C)(N3CCCC3)C2C)OCO4)cc(OC)c1OC` (centres undefined): the GI50 is 0.419 µM and the TGI turned out to be 31.2 µM.
As to `O=C(O)c1ccc(CN2CCC(CN[C@@H]3C[C@H]3c3ccccc3)CC2)cc1`, the GI50 was more than 100 µM and the TGI was more than 100 µM.
As to `CCN(CC)CCNC(Cc1ccccc1)c1ccc(OCc2ccccc2)cc1` (centres undefined), the GI50 was 4.24 µM and the TGI was found to be 18.3 µM.
Take `Cc1nnc(-c2ccc(C)c(-c3ccc(C(=O)Nc4cccc(C#N)c4)cc3)c2)o1`: the GI50 was 8.65 µM and the TGI was more than 25 µM.
